# Like-named read-outs stand apart in the source and are kept apart here.
# Tests used:
# male Sprague-Dawley rats [1] = details: for substitution for BU224 discriminative stimulus: full ≥ 80%, partial ≥ 60% and < 80% training drug-appropriate responding; for antagonism of the discriminative stimulus effects of BU224: 10-min pretreatment, dose ratio 95% CLs included 1
# [2] = system: rats discriminating 2-BFI; details: ref MacInnes and Handley, 2002, Jordan et al., 1996; cited from earlier work
# male Sprague-Dawley rats [3] = details: for substitution for phenyzoline discriminative stimulus: full ≥ 80%, partial ≥ 60% and < 80% training drug-appropriate responding; for antagonism of the discriminative stimulus effects of phenyzoline: 10-min pretreatment, dose ratio 95% CLs included 1
# rats = details: rat, in vivo; cited from earlier work
# I2 receptors = details: cited from earlier work
# [4] = system: rats discriminating CR4056; details: ref Qiu et al., 2014a; cited from earlier work
# 5-HT5A = 5-HT5A (Homo sapiens, UniProt P47898); experiment: Binding selectivity screening, 5-HT5A; details: read-out: % inhibition (10nM)
# 5-HT5A, sequence (P47898 whole entry): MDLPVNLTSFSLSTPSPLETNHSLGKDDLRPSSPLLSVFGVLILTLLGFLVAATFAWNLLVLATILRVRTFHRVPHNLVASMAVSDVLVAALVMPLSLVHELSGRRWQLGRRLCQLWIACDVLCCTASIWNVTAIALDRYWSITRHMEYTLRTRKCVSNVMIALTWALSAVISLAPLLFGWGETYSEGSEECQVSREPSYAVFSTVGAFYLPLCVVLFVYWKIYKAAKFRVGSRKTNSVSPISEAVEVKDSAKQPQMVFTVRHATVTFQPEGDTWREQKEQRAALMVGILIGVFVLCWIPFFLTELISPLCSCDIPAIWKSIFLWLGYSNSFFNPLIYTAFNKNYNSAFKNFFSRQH
# M5 = M5 (Homo sapiens, UniProt P08912); experiment: biochemical; type: binding; details: read-out: % inhibition (10nM)
# D2 = D2 (Homo sapiens, UniProt P14416); experiment: Binding selectivity screening, D2; details: read-out: % inhibition (10nM)
# D2, sequence (P14416 whole entry): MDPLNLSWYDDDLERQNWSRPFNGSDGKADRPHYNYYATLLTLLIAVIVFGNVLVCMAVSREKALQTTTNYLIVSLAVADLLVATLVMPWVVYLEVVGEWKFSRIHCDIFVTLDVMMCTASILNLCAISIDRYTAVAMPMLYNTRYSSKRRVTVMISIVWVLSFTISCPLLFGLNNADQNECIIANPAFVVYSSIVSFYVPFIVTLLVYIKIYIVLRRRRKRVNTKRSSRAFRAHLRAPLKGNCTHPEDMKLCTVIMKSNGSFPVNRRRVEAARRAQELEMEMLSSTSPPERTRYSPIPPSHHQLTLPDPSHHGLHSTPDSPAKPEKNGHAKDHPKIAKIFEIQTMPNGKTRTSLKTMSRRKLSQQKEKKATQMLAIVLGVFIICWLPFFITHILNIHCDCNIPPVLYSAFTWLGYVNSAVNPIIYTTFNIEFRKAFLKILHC
# β 3 = β 3 (Homo sapiens, UniProt P13945); experiment: Binding selectivity screening, β 3; details: read-out: % inhibition (10nM)
# β 3, sequence (P13945 whole entry): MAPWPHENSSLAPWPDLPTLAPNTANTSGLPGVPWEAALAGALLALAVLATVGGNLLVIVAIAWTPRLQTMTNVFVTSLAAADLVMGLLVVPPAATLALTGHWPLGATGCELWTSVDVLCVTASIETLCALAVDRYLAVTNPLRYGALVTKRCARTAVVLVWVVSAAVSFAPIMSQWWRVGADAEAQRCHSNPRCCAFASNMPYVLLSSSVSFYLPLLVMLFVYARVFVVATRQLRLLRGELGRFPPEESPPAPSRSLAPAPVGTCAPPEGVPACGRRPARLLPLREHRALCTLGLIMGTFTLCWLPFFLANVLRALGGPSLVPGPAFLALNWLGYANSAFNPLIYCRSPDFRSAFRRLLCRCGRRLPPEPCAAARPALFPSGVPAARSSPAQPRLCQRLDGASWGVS
# alpha 2B [5] = target: alpha 2B (Homo sapiens, UniProt P18089); experiment: Binding selectivity screening, alpha 2B; details: read-out: % inhibition (10nM)
# alpha 2A = alpha 2A (Homo sapiens, UniProt P08913); experiment: Binding selectivity screening, alpha 2A
# alpha 2A, sequence (P08913 whole entry): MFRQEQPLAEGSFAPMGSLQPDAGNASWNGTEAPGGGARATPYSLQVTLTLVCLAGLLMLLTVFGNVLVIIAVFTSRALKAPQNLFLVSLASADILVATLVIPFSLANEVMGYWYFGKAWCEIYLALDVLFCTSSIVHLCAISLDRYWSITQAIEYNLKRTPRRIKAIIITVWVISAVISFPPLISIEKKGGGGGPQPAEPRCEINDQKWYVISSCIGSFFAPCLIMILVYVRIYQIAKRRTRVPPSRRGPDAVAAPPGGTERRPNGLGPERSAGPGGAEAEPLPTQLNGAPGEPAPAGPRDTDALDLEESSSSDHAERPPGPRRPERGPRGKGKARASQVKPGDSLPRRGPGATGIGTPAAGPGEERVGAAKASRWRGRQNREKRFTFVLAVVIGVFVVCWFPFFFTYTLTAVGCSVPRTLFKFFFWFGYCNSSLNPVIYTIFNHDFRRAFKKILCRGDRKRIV
# H3 = H3 (Homo sapiens, UniProt Q9Y5N1); experiment: Binding selectivity screening, H3; details: read-out: % inhibition (10nM)
# 5-HT1B = 5-HT1B (Homo sapiens, UniProt P28222); experiment: Binding selectivity screening, 5-HT1B; details: read-out: % inhibition (10nM)
# 5-HT3 = 5-HT3 (Homo sapiens, UniProt P46098); experiment: Binding selectivity screening, 5-HT3; details: read-out: % inhibition (10nM)
# D5 = D5 (Homo sapiens, UniProt P21918); experiment: Binding selectivity screening, D5; details: read-out: % inhibition (10nM)
# D5, sequence (P21918 whole entry): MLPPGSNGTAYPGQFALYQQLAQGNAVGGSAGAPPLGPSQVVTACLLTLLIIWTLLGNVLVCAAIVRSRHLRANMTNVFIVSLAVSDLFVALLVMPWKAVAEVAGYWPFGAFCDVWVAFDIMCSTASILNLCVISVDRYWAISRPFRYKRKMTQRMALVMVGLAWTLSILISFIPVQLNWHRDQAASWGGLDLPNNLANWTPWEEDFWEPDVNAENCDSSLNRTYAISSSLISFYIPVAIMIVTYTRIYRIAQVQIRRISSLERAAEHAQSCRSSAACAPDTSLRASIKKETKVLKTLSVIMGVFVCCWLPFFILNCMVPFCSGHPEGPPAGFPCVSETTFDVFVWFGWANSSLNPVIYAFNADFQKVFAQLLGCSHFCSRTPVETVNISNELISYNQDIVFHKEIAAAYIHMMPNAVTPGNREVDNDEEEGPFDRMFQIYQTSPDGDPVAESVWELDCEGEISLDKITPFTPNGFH
# 5-HT1A = 5-HT1A (Homo sapiens, UniProt P08908); experiment: Binding selectivity screening, 5-HT1A
# 5-HT1A, sequence (P08908 whole entry, species assumed): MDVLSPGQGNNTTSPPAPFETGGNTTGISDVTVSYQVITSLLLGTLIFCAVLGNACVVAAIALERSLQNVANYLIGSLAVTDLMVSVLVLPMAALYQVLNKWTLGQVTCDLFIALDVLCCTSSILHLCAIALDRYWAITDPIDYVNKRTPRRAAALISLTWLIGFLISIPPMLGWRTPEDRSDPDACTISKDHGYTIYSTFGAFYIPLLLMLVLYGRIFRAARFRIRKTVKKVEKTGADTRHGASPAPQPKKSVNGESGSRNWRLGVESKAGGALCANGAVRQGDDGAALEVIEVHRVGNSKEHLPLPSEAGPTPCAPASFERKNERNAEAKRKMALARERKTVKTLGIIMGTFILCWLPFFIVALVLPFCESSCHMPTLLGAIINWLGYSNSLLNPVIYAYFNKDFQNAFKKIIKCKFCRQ
# 5-HT1D = 5-HT1D (Homo sapiens, UniProt P28221); experiment: Binding selectivity screening, 5-HT1D; details: read-out: % inhibition (10nM)
# H1 = H1 (Homo sapiens, UniProt P35367); experiment: Binding selectivity screening, H1; details: read-out: % inhibition (10nM)
# H1, sequence (P35367 whole entry): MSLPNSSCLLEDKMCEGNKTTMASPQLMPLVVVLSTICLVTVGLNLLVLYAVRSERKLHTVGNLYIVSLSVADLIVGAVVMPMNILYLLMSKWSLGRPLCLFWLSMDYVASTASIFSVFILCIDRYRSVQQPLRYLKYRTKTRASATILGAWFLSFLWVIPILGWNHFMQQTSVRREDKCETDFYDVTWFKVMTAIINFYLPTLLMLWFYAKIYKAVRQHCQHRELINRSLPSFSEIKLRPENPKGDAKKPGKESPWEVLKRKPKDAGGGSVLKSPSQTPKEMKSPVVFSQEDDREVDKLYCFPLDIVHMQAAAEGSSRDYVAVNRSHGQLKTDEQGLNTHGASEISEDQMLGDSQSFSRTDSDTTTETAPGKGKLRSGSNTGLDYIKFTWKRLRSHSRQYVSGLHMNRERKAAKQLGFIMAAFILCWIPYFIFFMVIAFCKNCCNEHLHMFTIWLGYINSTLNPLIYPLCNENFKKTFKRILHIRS
# D3 = D3 (Homo sapiens, UniProt P35462); experiment: Binding selectivity screening, D3; details: read-out: % inhibition (10nM)
# NET = NET (Homo sapiens, UniProt P23975); experiment: Binding selectivity screening, NET; details: read-out: % inhibition (10nM)
# κ opioid receptor = κ opioid receptor (Homo sapiens, UniProt P41145); experiment: Binding selectivity screening, κ opioid receptor; details: read-out: % inhibition (10nM)
# M1 = M1 (Homo sapiens, UniProt P11229); experiment: biochemical; type: binding; details: read-out: % inhibition (10nM)
# M1, sequence (P11229 whole entry): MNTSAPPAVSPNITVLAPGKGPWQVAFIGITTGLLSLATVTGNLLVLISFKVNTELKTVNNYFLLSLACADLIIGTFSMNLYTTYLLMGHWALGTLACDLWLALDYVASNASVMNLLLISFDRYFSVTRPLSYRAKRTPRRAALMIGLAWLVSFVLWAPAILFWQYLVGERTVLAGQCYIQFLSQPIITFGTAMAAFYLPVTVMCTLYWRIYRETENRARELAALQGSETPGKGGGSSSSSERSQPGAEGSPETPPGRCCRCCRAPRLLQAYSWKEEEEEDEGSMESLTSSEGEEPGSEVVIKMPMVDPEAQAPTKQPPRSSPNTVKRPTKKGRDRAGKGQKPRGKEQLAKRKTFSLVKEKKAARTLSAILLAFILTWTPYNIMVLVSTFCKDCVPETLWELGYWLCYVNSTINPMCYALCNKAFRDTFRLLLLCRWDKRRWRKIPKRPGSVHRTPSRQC
# 5-HT7 = 5-HT7 (Homo sapiens, UniProt P34969); experiment: Binding selectivity screening, 5-HT7; details: read-out: % inhibition (10nM)
# 5-HT7, sequence (P34969 whole entry): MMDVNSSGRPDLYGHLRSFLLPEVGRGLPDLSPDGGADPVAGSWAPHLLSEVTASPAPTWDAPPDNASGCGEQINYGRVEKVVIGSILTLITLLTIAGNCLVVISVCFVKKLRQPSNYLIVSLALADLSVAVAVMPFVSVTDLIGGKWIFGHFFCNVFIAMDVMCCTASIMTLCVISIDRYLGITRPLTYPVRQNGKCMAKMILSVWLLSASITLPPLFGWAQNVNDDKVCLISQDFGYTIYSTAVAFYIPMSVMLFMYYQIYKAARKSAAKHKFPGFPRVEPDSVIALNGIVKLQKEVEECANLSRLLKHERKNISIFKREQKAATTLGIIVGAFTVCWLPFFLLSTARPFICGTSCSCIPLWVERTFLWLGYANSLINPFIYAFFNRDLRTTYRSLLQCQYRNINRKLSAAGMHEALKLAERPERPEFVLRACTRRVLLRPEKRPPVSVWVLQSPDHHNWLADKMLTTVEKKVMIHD
# β 1 = β 1 (Homo sapiens, UniProt P08588); experiment: Binding selectivity screening, β 1; details: read-out: % inhibition (10nM)
# μ opioid receptor = μ opioid receptor (Homo sapiens, UniProt P35372); experiment: Binding selectivity screening, μ opioid receptor; details: read-out: % inhibition (10nM)
# H4 = H4 (Homo sapiens, UniProt Q9H3N8); experiment: Binding selectivity screening, H4; details: read-out: % inhibition (10nM)
# alpha 2B [6] = target: alpha 2B (Homo sapiens, UniProt P35368); experiment: Binding selectivity screening, alpha 2B; details: read-out: % inhibition (10nM)
# δ opioid receptor = δ opioid receptor (Homo sapiens, UniProt P41143); experiment: Binding selectivity screening, δ opioid receptor; details: read-out: % inhibition (10nM)
# M2 = M2 (Homo sapiens, UniProt P08172); experiment: biochemical; type: binding; details: read-out: % inhibition (10nM)
# M3 = M3 (Homo sapiens, UniProt P20309); experiment: biochemical; type: binding; details: read-out: % inhibition (10nM)
# alpha 1A = alpha 1A (Homo sapiens, UniProt P35348); experiment: Binding selectivity screening, alpha 1A; details: read-out: % inhibition (10nM)
# M4 = M4 (Homo sapiens, UniProt P08173); experiment: biochemical; type: binding; details: read-out: % inhibition (10nM)
# 5-HT2A = 5-HT2A (Homo sapiens, UniProt P28223); experiment: Binding selectivity screening, 5-HT2A; details: read-out: % inhibition (10nM)
# 5-HT2A, sequence (P28223 whole entry): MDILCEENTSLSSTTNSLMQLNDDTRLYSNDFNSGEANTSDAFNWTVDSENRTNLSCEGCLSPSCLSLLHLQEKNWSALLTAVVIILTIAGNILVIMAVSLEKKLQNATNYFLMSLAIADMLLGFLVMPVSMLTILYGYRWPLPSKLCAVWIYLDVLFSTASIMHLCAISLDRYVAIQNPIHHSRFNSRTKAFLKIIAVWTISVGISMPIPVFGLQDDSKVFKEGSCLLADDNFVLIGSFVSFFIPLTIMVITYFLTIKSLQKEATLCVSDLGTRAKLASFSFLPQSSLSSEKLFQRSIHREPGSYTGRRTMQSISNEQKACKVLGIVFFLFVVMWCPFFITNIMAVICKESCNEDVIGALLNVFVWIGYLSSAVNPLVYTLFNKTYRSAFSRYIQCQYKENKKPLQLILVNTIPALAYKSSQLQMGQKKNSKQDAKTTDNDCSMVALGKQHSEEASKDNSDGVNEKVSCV
# alpha 1D = alpha 1D (Homo sapiens, UniProt P25100); experiment: Binding selectivity screening, alpha 1D; details: read-out: % inhibition (10nM)
# alpha 2C = alpha 2C (Homo sapiens, UniProt P18825); experiment: Binding selectivity screening, alpha 2C; details: read-out: % inhibition (10nM)
# β 2 = β 2 (Homo sapiens, UniProt P07550); experiment: Binding selectivity screening, β 2; details: read-out: % inhibition (10nM)
# DAT = DAT (Homo sapiens, UniProt Q01959); experiment: Binding selectivity screening, DAT; details: read-out: % inhibition (10nM)
# D4 = D4 (Homo sapiens, UniProt P21917); experiment: Binding selectivity screening, D4; details: read-out: % inhibition (10nM)
# D1 = D1 (Homo sapiens, UniProt P21728); experiment: Binding selectivity screening, D1; details: read-out: % inhibition (10nM)
# D1, sequence (P21728 whole entry): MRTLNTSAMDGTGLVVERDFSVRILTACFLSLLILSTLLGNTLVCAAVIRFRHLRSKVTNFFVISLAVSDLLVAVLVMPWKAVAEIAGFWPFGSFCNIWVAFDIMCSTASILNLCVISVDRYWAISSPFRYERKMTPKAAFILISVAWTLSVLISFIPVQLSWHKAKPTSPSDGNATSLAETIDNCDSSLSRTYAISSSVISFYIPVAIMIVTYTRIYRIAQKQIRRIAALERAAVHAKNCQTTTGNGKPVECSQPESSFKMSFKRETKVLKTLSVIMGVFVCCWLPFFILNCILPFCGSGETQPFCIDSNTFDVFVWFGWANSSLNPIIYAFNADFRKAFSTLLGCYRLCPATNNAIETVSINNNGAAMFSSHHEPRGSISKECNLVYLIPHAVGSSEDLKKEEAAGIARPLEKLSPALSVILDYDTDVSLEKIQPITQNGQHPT
# 5-HT2C = 5-HT2C (Homo sapiens, UniProt P28335); experiment: Binding selectivity screening, 5-HT2C; details: read-out: % inhibition (10nM)
# SERT = SERT (Homo sapiens, UniProt P31645); experiment: Binding selectivity screening, SERT; details: read-out: % inhibition (10nM)
# 5-HT1E = 5-HT1E (Homo sapiens, UniProt P28566); experiment: Binding selectivity screening, 5-HT1E; details: read-out: % inhibition (10nM)
smiles,measurement,setting,value
CNC1(c2ccccc2Cl)CCCCC1=O (centres unmarked) [ketamine],substitution for BU224 discriminative stimulus,male Sprague-Dawley rats [1],partial or less substitution
COc1ccc2c3c([nH]c2c1)C(C)=NCC3 [harmaline],substitution for 2-BFI discriminative stimulus,[2],fully substitute
NCCCCN=C(N)N [agmatine],substitution for BU224 discriminative stimulus,male Sprague-Dawley rats [1],partial or less substitution
"Cl.c1ccc2nc(C3=NCCN3)ccc2c1 [BU224, 2-(4,5-Dihydroimidazol-2-yl) quinoline hydrochloride]",substitution for 2-BFI discriminative stimulus,[2],fully substituted
same,duration of discriminative stimulus effects,male Sprague-Dawley rats [1]; 5.6 mg/kg BU224 i.p.,120 min
same,effect on response rate,"male Sprague-Dawley rats [1]; rat, in vivo",without significantly altering response rate
same,substitution for phenyzoline discriminative stimulus,male Sprague-Dawley rats [3],completely substituted
same,dose that significantly suppresses food-maintained operant responding,rats,17.8 mg/kg
"Clc1cccc2c1CN(C1=NCCN1)C2 [RS45041, 4-chloro-2-(imidazolin-2-yl) isoindoline]","BU224-appropriate (drug-associated lever) responding, maximum",male Sprague-Dawley rats [1]; substitution test in rats discriminating 5.6 mg/kg BU224,> 80%
same,"phenyzoline-appropriate (drug-associated lever) responding, maximum",male Sprague-Dawley rats [3]; substitution test in rats discriminating 32 mg/kg phenyzoline,> 80%
same,"selectivity for I2 receptors over adrenoceptors, dopamine, 5-HT, muscarinic receptors and dihydropyridine binding sites","I2 receptors; ref Brown et al., 1995",> 1000 fold
"c1ccc(-c2ncc3cc(-n4ccnc4)ccc3n2)cc1 [CR4056, 2-phenyl-6-(1H-imidazol-1-yl) quinazoline]",IC50,"I2 receptors; read-out: IC50 at I2 receptor, ref Ferrari et al., 2011",596 nM
"c1ccc(CCC2=NCCN2)cc1 [phenyzoline, 4,5-dihidro-2-(2-phenylethyl)-1H-imidazole]",substitution for CR4056 discriminative stimulus,[4],fully substituted
same,inhibition at 0.01 µM,5-HT5A,4.6%
same,inhibition at 0.01 µM,M5,25.9%
same,inhibition at 0.01 µM,D2,-7.3%
same,inhibition at 0.01 µM,β 3,-5.5%
same,inhibition at 0.01 µM,alpha 2B [5],42.7%
same,Ki,alpha 2A,851 nM
same,inhibition at 0.01 µM,H3,10.4%
same,duration of discriminative stimulus effects,male Sprague-Dawley rats [3]; 32 mg/kg phenyzoline i.p.,90 min
same,effect on response rate,"male Sprague-Dawley rats [3]; rat, in vivo",without significantly altering response rate
same,inhibition at 0.01 µM,5-HT1B,-2.6%
same,inhibition at 0.01 µM,5-HT3,-13.3%
same,inhibition at 0.01 µM,D5,-11.6%
same,Ki,5-HT1A,> 10000 nM
same,inhibition at 0.01 µM,5-HT1D,5%
same,inhibition at 0.01 µM,H1,-10.9%
same,inhibition at 0.01 µM,D3,-4.1%
same,inhibition at 0.01 µM,NET,6.8%
same,inhibition at 0.01 µM,κ opioid receptor,7.1%
same,inhibition at 0.01 µM,M1,-14.1%
same,inhibition at 0.01 µM,5-HT7,23.7%
same,inhibition at 0.01 µM,β 1,-10.1%
same,inhibition at 0.01 µM,μ opioid receptor,5.4%
same,inhibition at 0.01 µM,H4,15.2%
same,inhibition at 0.01 µM,alpha 2B [6],6.3%
same,inhibition at 0.01 µM,δ opioid receptor,-2.7%
same,inhibition at 0.01 µM,M2,11.1%
same,inhibition at 0.01 µM,M3,-2%
same,inhibition at 0.01 µM,alpha 1A,17.3%
same,inhibition at 0.01 µM,M4,-0.5%
same,inhibition at 0.01 µM,5-HT2A,38.4%
same,inhibition at 0.01 µM,alpha 1D,-0.6%
same,inhibition at 0.01 µM,alpha 2C,29.6%
same,inhibition at 0.01 µM,β 2,22.9%
same,inhibition at 0.01 µM,DAT,43.6%
same,inhibition at 0.01 µM,D4,9.1%
same,inhibition at 0.01 µM,D1,0.9%
same,inhibition at 0.01 µM,5-HT2C,14.3%
same,inhibition at 0.01 µM,SERT,21.9%
same,inhibition at 0.01 µM,5-HT1E,-4.2%
"COc1cccc([C@H](O)C2CCN(CCc3ccc(F)cc3)CC2)c1OC [MDL100907, (R)-(2,3-dimethoxyphenyl)-[1-[2-(4-fluorophenyl)ethyl]-4-piperidyl] methanol]",antagonism of the discriminative stimulus effects of BU224,male Sprague-Dawley rats [1],failed to antagonize
same,antagonism of the discriminative stimulus effects of phenyzoline,male Sprague-Dawley rats [3],failed to antagonize
CN[C@@H](C)Cc1ccccc1 [methamphetamine],substitution for BU224 discriminative stimulus,male Sprague-Dawley rats [1],partial or less substitution
same,substitution for phenyzoline discriminative stimulus,male Sprague-Dawley rats [3],partial substitution
CN1CC[C@]23c4c5ccc(O)c4O[C@H]2[C@@H](O)C=C[C@H]3[C@H]1C5 [morphine],substitution for BU224 discriminative stimulus,male Sprague-Dawley rats [1],partial or less substitution
same,substitution for phenyzoline discriminative stimulus,male Sprague-Dawley rats [3],partial substitution
CCC(=O)C(CC(C)N(C)C)(c1ccccc1)c1ccccc1 (centres unmarked) [methadone],substitution for BU224 discriminative stimulus,male Sprague-Dawley rats [1],partial or less substitution
"C(=C\c1ccccc1)/C1=NCCN1 [tracizoline, 2-styryl-4,5-dihydro-lH-imidazole]",selectivity for I2 receptors over I1 receptors,"I2 receptors; ref Pigini et al., 1997",10 fold
same,selectivity for I2 receptors over α2 adrenoceptors,"I2 receptors; ref Pigini et al., 1997",7431 fold
Clc1cccc(Cl)c1N=C1NCCN1 [clonidine],substitution for BU224 discriminative stimulus,male Sprague-Dawley rats [1],partial or less substitution
same,substitution for phenyzoline discriminative stimulus,male Sprague-Dawley rats [3],partial substitution
Cc1nccc2c1[nH]c1ccccc12 [harmane],substitution for CR4056 discriminative stimulus,[4],does not substitute
same,substitution for 2-BFI discriminative stimulus,[2],fully substitute
same,substitution for BU224 discriminative stimulus,male Sprague-Dawley rats [1],fully substitutes
same,substitution for phenyzoline discriminative stimulus,male Sprague-Dawley rats [3],only partially substitutes
O=C1CC[C@@]2(O)[C@H]3Cc4ccc(O)c5c4[C@@]2(CCN3CC2CC2)[C@H]1O5 [naltrexone],antagonism of the discriminative stimulus effects of BU224,male Sprague-Dawley rats [1],failed to antagonize
same,antagonism of the discriminative stimulus effects of phenyzoline,male Sprague-Dawley rats [3],failed to antagonize
c1ccc2c(c1)OCC(C1=NCCN1)O2 (centres unmarked) [idazoxan],substitution for 2-BFI discriminative stimulus,[2],fully substitutes
same,substitution for BU224 discriminative stimulus,male Sprague-Dawley rats [1],fully substituted
same,substitution for phenyzoline discriminative stimulus,male Sprague-Dawley rats [3],fully substituted
"Cl.c1ccc2oc(C3=NCCN3)cc2c1 [2-BFI, 2-(2-Benzofuranyl)-2-imidazoline hydrochloride]",substitution for BU224 discriminative stimulus,male Sprague-Dawley rats [1],fully substituted
same,substitution for phenyzoline discriminative stimulus,male Sprague-Dawley rats [3],only partially substituted
same,dose that significantly suppresses food-maintained operant responding,rats,10 mg/kg
O=C(CCCN1CCC(O)(c2ccc(Cl)cc2)CC1)c1ccc(F)cc1 [haloperidol],antagonism of the discriminative stimulus effects of BU224,male Sprague-Dawley rats [1],failed to antagonize
same,antagonism of the discriminative stimulus effects of phenyzoline,male Sprague-Dawley rats [3],failed to antagonize

# Reference: paper PMC4331254 (European journal of pharmacology, 2015)
